Target: T1, Coproheme decarboxylase (Staphylococcus aureus, UniProt Q2YS77)
T1 sequence (Q2YS77 whole entry): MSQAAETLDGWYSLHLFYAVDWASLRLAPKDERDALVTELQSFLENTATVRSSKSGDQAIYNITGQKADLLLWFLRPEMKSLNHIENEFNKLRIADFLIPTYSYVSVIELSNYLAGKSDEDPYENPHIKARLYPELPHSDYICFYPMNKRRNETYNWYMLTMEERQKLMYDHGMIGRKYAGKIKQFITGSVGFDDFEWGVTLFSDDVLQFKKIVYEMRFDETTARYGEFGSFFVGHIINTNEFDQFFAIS
Assay: Fluorescence Titration Assay
Conditions: pH 6.8
Procedure: Titrations using fluorescence spectroscopy were carried out on a Jobin Yvon Horiba FluoroMax-3 fluorimeter in scanning mode. Apo-HemQ (5 μM) was diluted in 0.1 M potassium phosphate buffer, pH 6.8, and titrated with stocks of heme (1 mM in0.1 M NaOH) and protoporphyrin IX (1 mM in DMSO) each diluted to 500 μM at 25 °C.

SMILES: C=Cc1c(C)c2cc3[nH]c(cc4nc(cc5nc(cc1[nH]2)C(C)=C5CCC(=O)O)C(CCC(=O)O)=C4C)c(C)c3C=C
- Kd: 2210 nM

From BindingDB's records for doi:10.1074/jbc.M112.442335 (University of Notre Dame, 2013)
